Test: In-vial stability, 2 weeks: HPLC content and total impurities
Format: physicochemical
Method: The glass vials containing the compositions prepared in Example 4-1 were stored for 2 weeks under the two conditions below, and stability study was performed.
Aliquots of the compositions in the glass vial were taken, and the content of Compound 1 and total impurities were measured with HPLC. Measurements were performed in duplicates, and the average value was reported. Impurities were quantified by percentage area relative to the main Compound 1 peak and based on Relative Response Factor (RRF) of 1.0. As a positive control, the dried powder of Compound 1 was used and tested in the same way.

CC(=O)Nc1cccc(-n2c(=O)n(C3CC3)c(=O)c3c(Nc4ccc(I)cc4F)n(C)c(=O)c(C)c32)c1 [Compound 1, N-(3-{3-Cyclopropyl-5-[(2-fluoro-4-iodophenyl)amino]-6,8-dimethyl-2,4,7-trioxo-3,4,6,7-tetrahydropyrido[4,3-d]pyrimidin-1 (2H)-yl}phenyl) acetamide]
Compound 1 Content (%) (t = 0): 100.5%
Total Impurities (%) (t = 0): 0.15%
Compound 1 Content (%) (t = 2w (40° C./75% RH)): 100.3%
Total Impurities (%) (t = 2w (40° C./75% RH)): 0.14%

Reference: patent US20250064813A1, “STABLE LIQUID PHARMACEUTICAL FORMULATION” (GENUV Inc., priority 2022, published 2025)
